Experimental data published in patent publication US20150105252A1, “SUBSTITUTED PYRAZOLES AS HERBICIDES” (E I DU PONT DE NEMOURS AND COMPANY, priority 2013, published 2015).

Legend:
johnsongrass = experiment: Test C postemergence; format: in vivo, Sorghum halepense; conditions: for Plant response rating (scale of 0 to 100 where 0 is no effect and 100 is complete control), Johnsongrass: Postemergence, 31 g ai/ha, visually evaluated after 13 to 15 days; for Johnsongrass plant response rating / Plant response rating, Johnsongrass: postemergence; for Johnsongrass plant response rating: 62 g ai/ha, scale 0 to 100
In short: (§1)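 Seeds were sown in a loam soil–sand blend and sprayed preemergence with compounds formulated in a non-phytotoxic solvent mixture containing surfactant. Postemergence plants, grown in peat/vermiculite medium to 2–18 cm (1- to 4-leaf stage), received the same formulation. After 13 to 15 days in a greenhouse, injury was rated visually against controls (0 = no effect, 100 = complete control).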

waterhemp [1] = experiment: Test C postemergence; format: in vivo, Amaranthus rudis; conditions: for Plant response rating (scale of 0 to 100 where 0 is no effect and 100 is complete control), Waterhemp: Postemergence, 31 g ai/ha, visually evaluated after 13 to 15 days; for Waterhemp plant response rating / Plant response rating, Waterhemp: postemergence; for Waterhemp plant response rating: 62 g ai/ha, scale 0 to 100
Excerpt: Seeds of plant species selected from blackgrass (Alopecurus myosuroides), ryegrass, Italian (Italian ryegrass, Lolium multiflorum), wheat (winter wheat, Triticum aestivum), galium (catchweed bedstraw, Galium aparine), corn (Zea mays), crabgrass, large (large crabgrass, Digitaria sanguinalis), foxtail, giant (giant foxtail, Setaria faberii), johnsongrass (Sorghum halepense), lambsquarters (Chenopodium album), morningglory (Ipomoea coccinea), nutsedge, yellow (yellow nutsedge, Cyperus esculentus), pigweed (redroot pigweed, Amaranthus retroflexus), ragweed (common ragweed, Ambrosia elation), soybean (Glycine max), barnyardgrass (Echinochloa crus-galli), oilseed rape (Brassica napus), waterhemp (common waterhemp, Amaranthus rudis), oat, wild (wild oat, Avena fatua), kochia (Kochia scoparia), Surinam grass (Brachiaria decumbens), foxtail, green (green foxtail, Setaria viridis), goosegrass (Eleusine indica), bromegrass, downy (downy bromegrass, Bromus tectorum), nightshade (eastern black nightshade, Solanum ptycanthum), cocklebur (common cocklebur, Xanthium strumarium), cupgrass, woolly (woolly cupgrass, Eriochloa villosa), bermudagrass (Cynodon dactylon), sunflower, (common oilseed sunflower, Helianthus annuus), Russian thistle (Salsola kali), and velvetleaf (Abutilon theophrasti) were planted into a blend of loam soil and sand and treated preemergence with test chemicals formulated in a non-phytotoxic solvent mixture which included a surfactant.
At the same time, plants selected from these crop and weed species and also chickweed (common chickweed, Stellaria media), canarygrass (littleseed canarygrass, Phalaris minor), and deadnettle (henbit deadnettle, Lamium amplexicaule), were planted in pots containing Redi-Earth® planting medium (Scotts Company, 14111 Scottslawn Road, Marysville, Ohio 43041) comprising spaghnum peat moss, vermiculite, wetting agent and starter nutrients and treated with postemergence applications of test chemicals formulated in the same manner. Plants ranged in height from 2 to 18 cm (1- to 4-leaf stage) for postemergence treatments. Treated plants and controls were maintained in a greenhouse for 13 to 15 days, after which time all species were compared to controls and visually evaluated. Plant response ratings, summarized in Table C, are based on a scale of 0 to 100 where 0 is no effect and 100 is complete control. A dash (-) response means no test result.

foxtail, giant [2] = experiment: Test A preemergence; format: in vivo, Setaria faberii; conditions: preemergence
In short: (§2)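 Seeds were sown in a loam soil–sand blend and given a directed soil spray preemergence; postemergence plants at 2–10 cm, one- to two-leaf stage, were sprayed with compound in non-phytotoxic solvent with surfactant. After about 10 days in a greenhouse, injury was visually rated against untreated controls (0 = no effect, 100 = complete control).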

crabgrass, large = experiment: Test C preemergence; format: in vivo, Digitaria sanguinalis; conditions: for Crabgrass, Large plant response rating / Plant response rating, Crabgrass, Large: preemergence; for Plant response rating, Crabgrass, Large: 125 g ai/ha, scale 0 to 100, 0 = no effect, 100 = complete control
In short: as §1

foxtail, giant [3] = experiment: Test C preemergence; format: in vivo, Setaria faberii; conditions: for Foxtail, Giant plant response rating / Plant response rating, Foxtail, Giant: preemergence; for Plant response rating, Foxtail, Giant: 125 g ai/ha, scale 0 to 100, 0 = no effect, 100 = complete control
In short: as §1

ducksalad = experiment: Test B flood; format: in vivo, Heteranthera limosa; conditions: 250 g ai/ha, visual rating on 0 to 100 scale (0 no effect, 100 complete control), 13 to 15 days
In short: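 Visual ratings on a 0–100 scale, where 0 means no effect and 100 means complete control, were assigned by comparison with controls 13 to 15 days after treatment. Compounds went into paddy water over 2-leaf plants flooded to 3 cm.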

chickweed = experiment: Test C postemergence; format: in vivo, Stellaria media; conditions: for Plant response rating (scale of 0 to 100 where 0 is no effect and 100 is complete control), Chickweed: Postemergence, 31 g ai/ha, visually evaluated after 13 to 15 days; for Chickweed plant response rating / Plant response rating, Chickweed: postemergence; for Chickweed plant response rating: 62 g ai/ha, scale 0 to 100
In short: as §1

foxtail, giant [4] = experiment: Test A postemergence; format: in vivo, Setaria faberii
In short: as §2

oat, wild = experiment: Test C postemergence; format: in vivo, Avena fatua; conditions: for Plant response rating (scale of 0 to 100 where 0 is no effect and 100 is complete control), Oat, Wild: Postemergence, 31 g ai/ha, visually evaluated after 13 to 15 days; for Oat, Wild plant response rating / Plant response rating, Oat, Wild: postemergence; for Oat, Wild plant response rating: 62 g ai/ha, scale 0 to 100
In short: as §1

waterhemp [5] = experiment: Test C preemergence; format: in vivo, Amaranthus rudis; conditions: for Waterhemp plant response rating / Plant response rating, Waterhemp: preemergence; for Plant response rating, Waterhemp: 125 g ai/ha, scale 0 to 100, 0 = no effect, 100 = complete control
In short: as §1

galium = experiment: Test C postemergence; format: in vivo, Galium aparine; conditions: for Plant response rating (scale of 0 to 100 where 0 is no effect and 100 is complete control), Galium: Postemergence, 31 g ai/ha, visually evaluated after 13 to 15 days; for Galium plant response rating / Plant response rating, Galium: postemergence; for Galium plant response rating: 62 g ai/ha, scale 0 to 100
In short: as §1

foxtail, giant [6] = experiment: Test C postemergence; format: in vivo, Setaria faberii; conditions: for Plant response rating (scale of 0 to 100 where 0 is no effect and 100 is complete control), Foxtail, Giant: Postemergence, 31 g ai/ha, visually evaluated after 13 to 15 days; for Foxtail, Giant plant response rating / Plant response rating, Foxtail, Giant: postemergence; for Foxtail, Giant plant response rating: 62 g ai/ha, scale 0 to 100
In short: as §1

[7] = 250 g ai/ha, scale 0 to 100 (0 no effect, 100 complete control)
[8] = 125 g ai/ha, scale 0 to 100, 0 no effect, 100 complete control
[9] = 125 g ai/ha, visual injury, 0 to 100 scale, approx. 10 days
[10] = 500 g ai/ha, visual injury after approx. 10 days, 0 to 100 scale (0 no effect, 100 complete control)
[11] = 31 g ai/ha, visual rating, scale 0 to 100 (0 no effect, 100 complete control), 13 to 15 days
[12] = 62 g ai/ha, scale 0 to 100 (0 no effect, 100 complete control), 13 to 15 days
[13] = Postemergence, 500 g ai/ha, 0 to 100 scale (0 no effect, 100 complete control)
[14] = postemergence, 125 g ai/ha, about 10 days, visual rating on 0 to 100 scale (0 no effect, 100 complete control)
[15] = 250 g ai/ha, scale 0 to 100, 0 is no effect, 100 is complete control

SMILES: CCOc1cc(C(=O)NCC(F)(F)F)nn1Cc1ccnc(OC(F)F)c1 [Compound 128]
- Plant response rating (scale of 0 to 100 where 0 is no effect and 100 is complete control), Johnsongrass (johnsongrass): 5
- Johnsongrass plant response rating (johnsongrass): 5
- Plant response rating, Johnsongrass (johnsongrass; [7]): 10
- Plant response rating, Johnsongrass (johnsongrass; [8]): 5
- Plant response rating (scale of 0 to 100 where 0 is no effect and 100 is complete control), Waterhemp (waterhemp [1]): 60
- Waterhemp plant response rating (waterhemp [1]): 65
- Plant response rating, Waterhemp (waterhemp [1]; [7]): 95
- Plant response rating, Waterhemp (waterhemp [1]; [8]): 70
- Foxtail, Giant plant response rating (foxtail, giant [2]; [9]): 100
- Foxtail, Giant plant response rating (foxtail, giant [2]; [10]): 100
- Plant response rating (scale of 0 to 100), Crabgrass, Large (crabgrass, large; Preemergence, 250 g ai/ha): 100
- Crabgrass, Large plant response rating (crabgrass, large; [11]): 100
- Crabgrass, Large plant response rating (crabgrass, large; [12]): 95
- Plant response rating, Crabgrass, Large (crabgrass, large; 13 to 15 days): 100
- Plant response rating (scale of 0 to 100), Foxtail, Giant (foxtail, giant [3]; Preemergence, 250 g ai/ha): 100
- Foxtail, Giant plant response rating (foxtail, giant [3]; [11]): 98
- Foxtail, Giant plant response rating (foxtail, giant [3]; [12]): 100
- Plant response rating, Foxtail, Giant (foxtail, giant [3]; 13 to 15 days): 100
- Plant response rating, Ducksalad (ducksalad): 95
- Plant response rating (scale of 0 to 100 where 0 is no effect and 100 is complete control), Chickweed (chickweed): 70
- Chickweed plant response rating (chickweed): 75
- Plant response rating, Chickweed (chickweed; [7]): 95
- Plant response rating, Chickweed (chickweed; [8]): 85
- Foxtail, Giant plant response rating (foxtail, giant [4]; [13]): 100
- Foxtail, Giant plant response rating (foxtail, giant [4]; [14]): 100
- Plant response rating (scale of 0 to 100 where 0 is no effect and 100 is complete control), Oat, Wild (oat, wild): 5
- Oat, Wild plant response rating (oat, wild): 10
- Plant response rating, Oat, Wild (oat, wild; [7]): 20
- Plant response rating, Oat, Wild (oat, wild; [8]): 25
- Plant response rating (scale of 0 to 100), Waterhemp (waterhemp [5]; Preemergence, 250 g ai/ha): 100
- Waterhemp plant response rating (waterhemp [5]; [11]): 100
- Waterhemp plant response rating (waterhemp [5]; [12]): 100
- Plant response rating, Waterhemp (waterhemp [5]; 13 to 15 days): 100
- Plant response rating (scale of 0 to 100 where 0 is no effect and 100 is complete control), Galium (galium): 60
- Galium plant response rating (galium): 65
- Plant response rating, Galium (galium; [7]): 70
- Plant response rating, Galium (galium; [8]): 80
- Plant response rating (scale of 0 to 100 where 0 is no effect and 100 is complete control), Foxtail, Giant (foxtail, giant [6]): 5
- Foxtail, Giant plant response rating (foxtail, giant [6]): 10
- Plant response rating, Foxtail, Giant (foxtail, giant [6]; [7]): 85
- Plant response rating, Foxtail, Giant (foxtail, giant [6]; [8]): 25

SMILES: CCCNC(=O)c1cc(OCC)n(Cc2ccnc(OC(F)F)c2)n1 [Compound 136]
- Plant response rating (scale of 0 to 100 where 0 is no effect and 100 is complete control), Johnsongrass (johnsongrass): 5
- Johnsongrass plant response rating (johnsongrass): 5
- Plant response rating, Johnsongrass (johnsongrass; [7]): 10
- Plant response rating, Johnsongrass (johnsongrass; [8]): 5
- Plant response rating (scale of 0 to 100 where 0 is no effect and 100 is complete control), Waterhemp (waterhemp [1]): 60
- Waterhemp plant response rating (waterhemp [1]): 70
- Plant response rating, Waterhemp (waterhemp [1]; [7]): 90
- Plant response rating, Waterhemp (waterhemp [1]; [8]): 75
- Foxtail, Giant plant response rating (foxtail, giant [2]; [9]): 100
- Foxtail, Giant plant response rating (foxtail, giant [2]; [10]): 100
- Crabgrass, Large plant response rating (crabgrass, large; [11]): 100
- Crabgrass, Large plant response rating (crabgrass, large; [12]): 100
- Plant response rating, Crabgrass, Large (crabgrass, large; 13 to 15 days): 100
- Crabgrass, Large plant response rating (crabgrass, large; [15]): 100
- Foxtail, Giant plant response rating (foxtail, giant [3]; [11]): 100
- Foxtail, Giant plant response rating (foxtail, giant [3]; [12]): 100
- Plant response rating, Foxtail, Giant (foxtail, giant [3]; 13 to 15 days): 100
- Foxtail, Giant plant response rating (foxtail, giant [3]; [15]): 100
- Plant response rating, Ducksalad (ducksalad): 80
- Plant response rating (scale of 0 to 100 where 0 is no effect and 100 is complete control), Chickweed (chickweed): 100
- Chickweed plant response rating (chickweed): 100
- Plant response rating, Chickweed (chickweed; [7]): 100
- Plant response rating, Chickweed (chickweed; [8]): 100
- Foxtail, Giant plant response rating (foxtail, giant [4]; [13]): 100
- Foxtail, Giant plant response rating (foxtail, giant [4]; [14]): 90
- Plant response rating (scale of 0 to 100 where 0 is no effect and 100 is complete control), Oat, Wild (oat, wild): 5
- Oat, Wild plant response rating (oat, wild): 5
- Plant response rating, Oat, Wild (oat, wild; [7]): 45
- Plant response rating, Oat, Wild (oat, wild; [8]): 10
- Waterhemp plant response rating (waterhemp [5]; [11]): 85
- Waterhemp plant response rating (waterhemp [5]; [12]): 100
- Plant response rating, Waterhemp (waterhemp [5]; 13 to 15 days): 100
- Waterhemp plant response rating (waterhemp [5]; [15]): 100
- Plant response rating (scale of 0 to 100 where 0 is no effect and 100 is complete control), Galium (galium): 60
- Galium plant response rating (galium): 60
- Plant response rating, Galium (galium; [7]): 80
- Plant response rating, Galium (galium; [8]): 60
- Plant response rating (scale of 0 to 100 where 0 is no effect and 100 is complete control), Foxtail, Giant (foxtail, giant [6]): 30
- Foxtail, Giant plant response rating (foxtail, giant [6]): 30
- Plant response rating, Foxtail, Giant (foxtail, giant [6]; [7]): 70
- Plant response rating, Foxtail, Giant (foxtail, giant [6]; [8]): 40
